Measured values reported in US10851069B2, “Compositions of crystallized hydrophobic compounds and methods of making and using same” (Massachusetts Institute of Technology, priority 2016, dated 2020).

Key:
[1] = test system: STZ-induced diabetic C57BL/6 mice; experiment: Blood glucose monitoring after transplantation of encapsulated rat islets with or without drug; type: in vivo
Experimental: Immediately prior to encapsulation, the cultured islets were centrifuged at 1,400 rpm for 1 minute and washed with Ca-free Krebs-Henseleit (KH) Buffer (4.7 mM KCl, 25 mM HEPES, 1.2 mM KH2PO4, 1.2 mM MgSO4×7H2O, 135 mM NaCl, pH≈7.4, ≈290 mOsm). After washing, islets were centrifuged again and all supernatant was aspirated. The islet pellet was then re-suspended in a 2.0% solution of SLG20 alginate dissolved in 0.9% NaCl solution at an islet density of 1,000 islets per 1.0 ml alginate solution. Spheres were crosslinked using a BaCl2 gelling solution and their sizes were controlled using similar procedures as the empty spheres (described above). Immediately after crosslinking, the encapsulated islets were washed 4 times with HEPES buffer and 2 times with RPMI Medium 1640 with 10% HIFBS and cultured overnight at 37° C. for transplantation. As the islets had variable sizes (50-400 μm) and there was an inevitable loss of islets during the encapsulation process, the total number of encapsulated islets were recounted and converted into islet equivalents (IE, normalized to 150 μm size) based on a previously published method (Ricordi, C. et al. Islet isolation assessment in man and large animals. Acta 18 Diabetol. Lat. 27, 185195 (1990)) prior to transplantation.
All animal protocols were approved by the MIT Committee on Animal Care, and all surgical procedures and post-operative care was supervised by MIT Division of Comparative Medicine veterinary staff. Immune-competent male non-diabetic or STZ-induced diabetic C57BL/6 mice (Jackson Laboratory, Bar Harbor, Me.) were anesthetized with 3% isoflurane in oxygen and had their abdomens shaved and sterilized using betadine and isopropanol. Preoperatively, all mice also received a 0.05 mg/kg dose of buprenorphine subcutaneously as a pre-surgical analgesic, along with 0.3 mL of 0.9% saline subcutaneously to prevent dehydration. […]
Blood glucose levels were monitored three times a week following transplantation of islet-containing alginate capsules. […]

C57BL/6 mice = experiment: PDMS discs loaded with GW2580 crystals implanted SC and IP; type: in vivo
Experimental: Another study was done by mixing GW2580 crystals at different ratios of 1, 5 and 10% w/w with PDMS to form disks of 2.2 mm thickness and 5 mm diameter prepared at ratio 9:1 (PDMS: curing reagent) and were solidified overnight at 45° C. These disks were implanted into SC and IP spaces in C57BL/6 mice and then retrieved and analyzed at 2 weeks, 4 weeks, and 3 months post implantation in C57BL/6 mice (1 disc/site/mouse). […] Retrieved materials where fixed overnight using 4% paraformaldehyde at 4° C. After fixation, alginate sphere or retrieved tissue samples were washed using 70% alcohol. The materials where then mixed with 4 degrees calcium-cooled Histogel (VWR, CA #60872-486). After the molds hardened, the blocks were processed for paraffin embedding, sectioning and staining according to standard histological methods. Single-cell suspensions of freshly excised tissues were prepared using a gentle MACS Dissociator (Miltenyi Biotec, Auburn, Calif.) according to the manufacturer's protocol. Single-cell suspensions were prepared in a passive PEB dissociation buffer (1×PBS, pH 7.2, 0.5% BSA, and 2 mM EDTA) and suspensions were passed through 70 μm filters (Cat. #22363548, Fisher Scientific, Pittsburgh, Pa.). This process removed the majority of cells adhered to the surface (>90%). All tissue and material sample-derived, single-cell populations were then subjected to red blood cell lysis with 5 ml of 1×RBC lysis buffer (Cat. #00-4333, eBioscience, San Diego, Calif., USA) for 5 min at 4° C. The reaction was terminated by the addition of 20 ml of sterile 1×PBS. The cells remaining were centrifuged at 300-400 g at 4° C. and resuspended in a minimal volume (˜50 μl) of eBioscience Staining Buffer (cat. #00-4222) for antibody incubation. All samples were then co-stained in the dark for 25 min at 4° C. with two of the fluorescently tagged monoclonal antibodies specific for the cell markers CD68 (1 μl (0.5 μg) per sample; CD68-Alexa647, Clone FA-11, Cat. #11-5931, BioLegend), Ly-6G (Gr-1) (1 μl (0.5 μg) per sample; Ly-6G-Alexa-647, Clone RB6-8C5, Cat. #108418, BioLegend), CD11b (1 μl (0.2 μg) per sample; or CD11b-Alexa-488, Clone M1/70, Cat. #101217, BioLegend). For alpha smooth muscle actin (fibrosis) analysis, additional cell aliquots were also fixed in 1% paraformaldehyde and permeabilized with 0.1% triton X-100 before being stained with Cy3-conjugated anti-mouse αSM actin antibody (1:100) (Sigma Aldrich, St. Louis, Mo.). Two ml of eBioscience Flow Cytometry Staining Buffer (cat. #00-4222, eBioscience) was then added, and the samples were centrifuged at 400-500 g for 5 min at 4° C. Supernatants were removed by aspiration, and this wash step was repeated two more times with staining buffer. Following the third wash, each sample was resuspended in 500 μl of Flow Cytometry Staining Buffer and run through a 40 μm filter (Cat. #22363547, Fisher Scientific) for eventual FACS analysis using a BD FACSCalibur (cat. #342975), BD Biosciences, San Jose, Calif., USA). For proper background and laser intensity settings, unstained, single antibody, and IgG (labeled with either Alexa-488 or Alexa-647, BioLegend) controls were also run. For primate cell staining, anti-human CD68 Alexa Fluor-647-conjugated antibody (Clone KP1, Cat. #sc-20060, Santa Cruz, Dallas, Tex.) was used in conjunction with the above BioLegend (anti-mouse/human) CD11b-AF488 antibody.

## COc1ccc(COc2ccc(Cc3cnc(N)nc3N)cc2OC)cc1 [GW2580, 5-[[3-Methoxy-4-[(4-methoxyphenyl)methoxy]phenyl]methyl]-2,4-pyrimidinediamine]
[1]; amorphous
  improvement of normoglycemia duration over controls: 2 fold
[1]; crystalline
  improvement of normoglycemia duration over controls: approximately 13 fold
[1]; crystalline, 0.5 mm alginate microspheres
  duration of maintained normoglycemia: over 1.25 years
C57BL/6 mice; 1, 5 and 10% w/w crystals, 2 and 4 weeks, 3 months
  foreign body response (plaque on retrieved PDMS discs): reduced in a dose-dependent fashion
C57BL/6 mice; 2 weeks, 4 weeks, 3 months
  remaining drug levels (% loading, HPLC), SC versus IP: release was slower in the SC space
C57BL/6 mice; all time points, IP and SC
  responding macrophages dissociated from discs (FACS): significantly reduced cell numbers
C57BL/6 mice; excised SC and IP tissues, versus blank discs
  immune cell infiltration and fibrosis (H&E and Masson's Trichrome): significantly reduced immune cell infiltration and fibrosis
C57BL/6 mice; same incubation times
  drug retention, PDMS versus alginate: drug retention was much higher in polymer PDMS
